Assay results as given in patent US20090221643A1, “4-PHENYL-3-(2-PROPYLSULFONYLAMINO) TETRAHYDROFURAN DERIVATIVES WHICH POTENTIATE GLUTAMATE RECEPTORS AND ARE USEFUL IN THE TREATMENT OF SCHIZOPHRENIA” (priority 2006, published 2009).

Biological target: T1, human GluR2 flip (unedited) AMPA receptor subunit (Homo sapiens, UniProt P42262)
T1 construct: expressed in transfected cells
Assay: Calcium influx fluorescence assay (FLUO4, FLIPR), potentiation of glutamate response
Type: cell-based
Settings: HEK293; HEK 293 cells expressing human GluR2 flip (unedited); fluorescence increase relative to that induced by cyclothiazide at maximum response; read-out: activity relative to cyclothiazide (at its maximal response)
Protocol: The ability of the compounds of the invention to potentiate glutamate receptor-mediated response may be determined a) by using fluorescent calcium-indicator dyes such as FLUO4 and additionally b) by measuring glutamate-evoked current recorded from human GluR2 flip unedited HEK293 cells.
384 well plates are prepared containing confluent monolayer of HEK 293 cells either stably expressing or transiently transfected with human GluR2 flip (unedited) AMPA receptor subunit. These cells form functional homotetrameric AMPA receptors. The tissue culture medium in the wells are discarded and the wells are each washed three times with standard buffer (80 μL) for the stable cell line (145 mM NaCl, 5 mM KCl, 1 mM MgCl2, 2 mM CaCl2, 20 mM N-[2-hydroxyethyl]-piperazine-N-[2-ethanesulfonic acid (HEPES), 5.5 mM glucose, pH 7.3) or with a Na-free buffer for the transient transfected cells (145 mM N-methyl-glucamine instead of NaCl). The plates are then incubated for 60 minutes in the dark with 2 μM FLUO4-AM dye (20 μL) (Molecular Probes, Netherlands) at room temperature to allow cell uptake of the FLUO-4AM, which is then converted to FLUO-4 by intracellular esterases which is unable to leave the cell. After incubation each well is washed three times with buffer (80 μL) (30 μL of buffer remained in each well after washing).
Compounds of the invention (or reference compounds such as cyclothiazide) are dissolved in dimethylsulfoxide (DMSO) at a stock concentration of 10 mM. These solutions are further diluted with DMSO using a Biomek FX (Beckman Coulter) in a 384 compound plate. Each dilution (1 μL) is transferred to another compound plate and buffer (50 μL) is added. An agonist stimulus (glutamate) plate is prepared by dissolving sodium glutamate in water to give a concentration of 100 mM. This solution is diluted with buffer to give a final concentration of 500 μM and dispensed into another 384-well plate (50 μL/well) using a Multidrop (Thermolabsystems).
The cell plate is then transferred into a fluorescence imaging plate based reader [such as the FLIPR384 (Molecular Devices)]. A baseline fluorescence reading is taken over a 10 to 240 second period, and then 10 μL from each plate containing a compound of the invention made up in standard buffer solution (in a concentration range from 100 μM to 10 μM) is added (to give a final concentration in the range 30 μM to 3 μM). The fluorescence is read over 5 minute period. 500 μM glutamate solution (10 μL) is added (to give a final concentration of 100 μM). The fluorescence is then read over a 4 minute period. The activities of the compounds of the invention and reference compounds are determined by measuring peak fluorescence after the last addition. The activity is also expressed relative to the fluorescence increase induced by cyclothiazide at their maximum response (i.e. greater than 30 μM).
The assay described above is believed to have an effective limit of detection of a pEC50 in the region of 3.5-4.0 due to the limitations of compound solubility. The pEC50 result is generally considered to be accurate +/−0.3.

T1 sequence (P42262 25-883 isoform P42262-2 limits assumed): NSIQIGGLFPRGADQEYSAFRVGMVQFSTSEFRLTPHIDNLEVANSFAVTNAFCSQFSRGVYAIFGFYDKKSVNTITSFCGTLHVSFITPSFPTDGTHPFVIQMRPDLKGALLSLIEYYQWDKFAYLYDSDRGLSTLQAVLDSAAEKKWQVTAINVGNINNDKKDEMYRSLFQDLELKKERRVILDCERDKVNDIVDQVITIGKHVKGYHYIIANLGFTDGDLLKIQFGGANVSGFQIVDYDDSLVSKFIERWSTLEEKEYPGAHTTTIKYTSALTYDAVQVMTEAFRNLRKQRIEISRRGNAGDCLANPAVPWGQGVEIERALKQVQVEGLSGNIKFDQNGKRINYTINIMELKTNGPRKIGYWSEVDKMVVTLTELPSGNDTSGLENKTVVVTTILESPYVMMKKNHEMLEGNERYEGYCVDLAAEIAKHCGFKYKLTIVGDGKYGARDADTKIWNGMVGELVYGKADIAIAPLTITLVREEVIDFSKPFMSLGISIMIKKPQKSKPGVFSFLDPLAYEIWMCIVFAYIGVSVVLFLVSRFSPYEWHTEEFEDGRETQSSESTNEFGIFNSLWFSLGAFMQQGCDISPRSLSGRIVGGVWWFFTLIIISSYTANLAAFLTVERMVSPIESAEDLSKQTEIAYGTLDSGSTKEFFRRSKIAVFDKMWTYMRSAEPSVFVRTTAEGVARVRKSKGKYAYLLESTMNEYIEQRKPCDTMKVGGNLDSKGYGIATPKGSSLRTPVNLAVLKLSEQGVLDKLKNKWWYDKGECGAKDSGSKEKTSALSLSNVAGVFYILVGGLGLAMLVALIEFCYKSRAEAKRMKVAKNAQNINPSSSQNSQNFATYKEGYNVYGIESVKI

| Structure (SMILES) | Emax [%] |
| --- | --- |
| CC(C)S(=O)(=O)N[C@@H]1COC[C@@H]1c1ccc(-c2cncc(F)c2)cc1 (racemic) [Example 4, N-{cis-4-[4-(5-fluoro-3-pyridinyl)phenyl]tetrahydro-3-furanyl}-2-propanesulfonamide] | ≥ 50 |
| CC(C)S(=O)(=O)N[C@@H]1COC[C@@H]1c1ccc(-c2ccc(Cl)cn2)cc1 (racemic) [Example 5, N-{cis-4-[4-(5-chloro-2-pyridinyl)phenyl]tetrahydro-3-furanyl}-2-propanesulfonamide] | ≥ 50 |
| CC(C)S(=O)(=O)N[C@@H]1COC[C@@H]1c1ccc(-c2ccc(F)nc2)cc1 (racemic) [Example 1, N-{cis-4-[4-(6-fluoro-3-pyridinyl)phenyl]tetrahydro-3-furanyl}-2-propanesulfonamide] | ≥ 50 |
| Cc1ccc(-c2ccc([C@H]3COC[C@H]3NS(=O)(=O)C(C)C)cc2)cn1 (racemic) [Example 2, N-{cis-4-[4-(6-methyl-3-pyridinyl)phenyl]tetrahydro-3-furanyl}-2-propanesulfonamide] | ≥ 50 |
| Cc1cncc(-c2ccc([C@H]3COC[C@H]3NS(=O)(=O)C(C)C)cc2)c1 (racemic) [Example 6, N-{cis-4-[4-(5-methyl-3-pyridinyl)phenyl]tetrahydro-3-furanyl}-2-propanesulfonamide] | ≥ 50 |
| CC(C)S(=O)(=O)N[C@@H]1COC[C@@H]1c1ccc(-c2ccc(F)cn2)cc1 (racemic) [Example 3, N-{cis-4-[4-(5-fluoro-2-pyridinyl)phenyl]tetrahydro-3-furanyl}-2-propanesulfonamide] | ≥ 50 |

More lines, now with the values ahead:

| Emax [%] | Structure (SMILES) |
| --- | --- |
| ≥ 50 | CC(=O)c1cccc(-c2ccc([C@H]3COC[C@H]3NS(=O)(=O)C(C)C)cc2)c1 (racemic) [Example 9, N-[cis-4-(3′-acetyl-4-biphenylyl)tetrahydro-3-furanyl]-2-propanesulfonamide] |
| ≥ 50 | CC(C)S(=O)(=O)N[C@@H]1COC[C@@H]1c1ccc(-c2ccsc2)cc1 (racemic) [Example 11, N-{cis-4-[4-(3-thienyl)phenyl]tetrahydro-3-furanyl}-2-propanesulfonamide] |
| ≥ 50 | CC(C)S(=O)(=O)N[C@@H]1COC[C@@H]1c1ccc(-c2ccc(C#N)cc2)cc1 (racemic) [Example 8, N-[cis-4-(4′-cyano-4-biphenylyl)tetrahydro-3-furanyl]-2-propanesulfonamide] |
| ≥ 50 | CC(C)S(=O)(=O)N[C@@H]1COC[C@@H]1c1ccc(-c2ccc3c(c2)OCO3)cc1 (racemic) [Example 10, N-{cis-4-[4-(1,3-benzodioxol-5-yl)phenyl]tetrahydro-3-furanyl}-2-propanesulfonamide] |
| ≥ 50 | CC(C)S(=O)(=O)N[C@@H]1COC[C@@H]1c1ccc(-c2ccc(F)cc2)cc1 (racemic) [Example 7, N-[cis-4-(4′-fluoro-4-biphenylyl)tetrahydro-3-furanyl]-2-propanesulfonamide] |
| ≥ 50 | CC(C)S(=O)(=O)N[C@@H]1COC[C@@H]1c1ccc(-c2cccs2)cc1 (racemic) [Example 12, N-{cis-4-[4-(2-thienyl)phenyl]tetrahydro-3-furanyl}-2-propanesulfonamide] |
